Assay results from PMC3542985 (The Journal of neuroscience : the official journal of the …, 2013).
Several values for one entry are separate records, joined by “and”; a condition that tells them apart may be missing. Identical values can stand only once. Like-named read-outs stand apart in the source and are kept apart here.

Assays:
Torpedo nAChR [1] = target: T1, Torpedo nAChR (Tetronarce californica, UniProt P02710+P02712+P02714+P02718); assay: biochemical; assay type: binding
[2] = target: T2, Na^+/K^+-ATPase α subunit (Tetronarce californica, UniProt P05025); assay type: binding, Torpedo californica
T2 sequence (P05029 whole entry, other chains not shown): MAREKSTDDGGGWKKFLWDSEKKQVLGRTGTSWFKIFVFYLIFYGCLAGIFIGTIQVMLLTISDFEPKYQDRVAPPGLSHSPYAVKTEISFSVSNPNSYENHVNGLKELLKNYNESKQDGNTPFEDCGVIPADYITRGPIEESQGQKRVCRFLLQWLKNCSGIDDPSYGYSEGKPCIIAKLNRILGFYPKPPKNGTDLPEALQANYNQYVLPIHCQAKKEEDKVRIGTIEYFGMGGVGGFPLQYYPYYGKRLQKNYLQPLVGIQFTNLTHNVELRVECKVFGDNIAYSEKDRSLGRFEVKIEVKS

Torpedo nAChR [3] = target: T1, Torpedo nAChR; assay type: binding
[4] = target: T2, Na^+/K^+-ATPase α subunit; assay type: binding, Torpedo californica; remark: listed apart in the source
Torpedo nAChR [5] = target: T1, Torpedo nAChR; assay: equilibrium binding of [^3H]ACh; conditions: IC50, inhibition of [^3H]ACh binding
Torpedo nAChR [6] = target: T1, Torpedo nAChR; assay: equilibrium binding of the ion channel blocker [^3H]tetracaine
Torpedo nAChR [7] = target: T1, Torpedo nAChR; assay: equilibrium binding of the ion channel blocker [^3H]PCP
[8] = Resting vs. Desensitized, −Carb (no other drugs)

T1 sequence (P02718 22-522): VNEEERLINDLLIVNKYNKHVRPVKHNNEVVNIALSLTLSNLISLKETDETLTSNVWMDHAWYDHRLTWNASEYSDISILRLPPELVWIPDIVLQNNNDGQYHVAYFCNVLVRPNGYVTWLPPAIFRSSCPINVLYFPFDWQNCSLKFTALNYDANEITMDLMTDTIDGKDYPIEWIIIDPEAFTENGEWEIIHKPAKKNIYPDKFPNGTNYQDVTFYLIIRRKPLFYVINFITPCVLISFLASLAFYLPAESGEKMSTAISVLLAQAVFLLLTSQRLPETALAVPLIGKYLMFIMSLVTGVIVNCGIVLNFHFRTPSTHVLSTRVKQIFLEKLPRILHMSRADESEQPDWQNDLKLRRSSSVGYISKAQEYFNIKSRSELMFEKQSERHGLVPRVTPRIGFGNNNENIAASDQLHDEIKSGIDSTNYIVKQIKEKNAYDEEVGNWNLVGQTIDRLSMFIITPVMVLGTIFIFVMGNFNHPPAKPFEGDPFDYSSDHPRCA
T1 sequence (P02714 18-506): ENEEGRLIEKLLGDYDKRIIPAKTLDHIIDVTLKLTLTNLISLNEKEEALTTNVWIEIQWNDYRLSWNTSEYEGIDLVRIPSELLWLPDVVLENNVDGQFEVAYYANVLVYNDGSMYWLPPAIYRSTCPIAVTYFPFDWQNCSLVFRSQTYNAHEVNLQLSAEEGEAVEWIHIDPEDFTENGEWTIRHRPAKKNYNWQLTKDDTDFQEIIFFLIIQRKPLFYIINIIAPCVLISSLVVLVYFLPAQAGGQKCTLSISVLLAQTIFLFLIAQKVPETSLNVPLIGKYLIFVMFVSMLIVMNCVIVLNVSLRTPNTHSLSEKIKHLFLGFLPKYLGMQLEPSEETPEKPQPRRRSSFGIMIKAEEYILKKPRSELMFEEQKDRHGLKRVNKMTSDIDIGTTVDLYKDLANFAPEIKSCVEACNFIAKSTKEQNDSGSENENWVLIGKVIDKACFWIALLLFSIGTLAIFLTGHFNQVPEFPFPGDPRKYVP
T1 sequence (P02712 25-493): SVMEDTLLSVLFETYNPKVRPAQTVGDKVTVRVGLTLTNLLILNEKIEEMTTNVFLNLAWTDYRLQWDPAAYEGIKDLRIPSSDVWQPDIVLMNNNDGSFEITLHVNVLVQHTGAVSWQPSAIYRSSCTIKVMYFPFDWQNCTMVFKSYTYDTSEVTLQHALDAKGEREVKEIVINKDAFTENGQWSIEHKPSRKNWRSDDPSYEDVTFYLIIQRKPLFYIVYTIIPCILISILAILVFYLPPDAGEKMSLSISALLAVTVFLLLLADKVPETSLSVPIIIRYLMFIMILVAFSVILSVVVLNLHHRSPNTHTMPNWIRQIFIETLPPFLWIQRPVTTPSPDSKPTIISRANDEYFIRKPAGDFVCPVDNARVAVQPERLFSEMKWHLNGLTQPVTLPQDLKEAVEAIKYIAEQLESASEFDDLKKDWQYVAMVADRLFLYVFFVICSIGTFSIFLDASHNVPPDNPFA
T1 sequence (P02710 25-461): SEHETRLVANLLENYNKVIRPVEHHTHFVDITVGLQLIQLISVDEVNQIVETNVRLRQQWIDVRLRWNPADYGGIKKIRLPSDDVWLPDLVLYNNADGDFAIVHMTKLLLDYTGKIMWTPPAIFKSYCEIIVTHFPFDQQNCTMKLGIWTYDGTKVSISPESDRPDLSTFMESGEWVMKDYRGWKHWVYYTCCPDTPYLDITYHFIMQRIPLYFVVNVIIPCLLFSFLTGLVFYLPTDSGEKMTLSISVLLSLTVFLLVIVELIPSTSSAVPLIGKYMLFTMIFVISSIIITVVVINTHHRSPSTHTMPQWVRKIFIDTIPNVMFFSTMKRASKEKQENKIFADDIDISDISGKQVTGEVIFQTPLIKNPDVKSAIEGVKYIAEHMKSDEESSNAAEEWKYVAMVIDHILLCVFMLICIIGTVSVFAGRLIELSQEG

[^3H]physostigmine
efficiency of photolabeling at δTyr-439 (Torpedo nAChR [1]): 1 cpm/pmol | photolabeling, if it occurred, of αLys-125 (Torpedo nAChR [1]): less than 0.2 cpm/pmol | photolabeling, if it occurred, of αTyr-127 (Torpedo nAChR [1]): < 0.05 cpm/pmol | photolabeling of δTyr-172 (Torpedo nAChR [1]; +Carb 1 mM): 4.9 cpm/pmol | photolabeling of δTyr-172 (Torpedo nAChR [1]; +αBgTx 8 μM): 1.6 cpm/pmol | photolabeling of δTyr-172 (Torpedo nAChR [1]; Carb-independent): 4 cpm/pmol | photoincorporation into αY190 (Site IV, core aromatics) (Torpedo nAChR [1]; [8]): 10 cpm/pmol | photoincorporation into αY198 (Site IV, core aromatics) (Torpedo nAChR [1]; [8]): 20 cpm/pmol | photoincorporation into γY111 (Site I) (Torpedo nAChR [1]; [8]): 9 cpm/pmol | photoincorporation into γY117 (Site I) (Torpedo nAChR [1]; [8]): 2 cpm/pmol | photolabeling of αCys-192 (Torpedo nAChR [1]; absence of other drugs): 10 cpm/pmol | photolabeling of δTrp-57 (Torpedo nAChR [1]; data not shown): 0.8 cpm/pmol | photolabeling, if it occurred, of adjacent aromatic amino acids (δTrp-64, δTyr-65) (Torpedo nAChR [1]; data not shown): < 0.2 cpm/pmol | photolabeling of δTyr-172 (Torpedo nAChR [1]; −Carb): 3.4 cpm/pmol | photolabeling of δTyr-172 (Torpedo nAChR [1]; −αBgTx): 5 cpm/pmol

α-bungarotoxin [α-BgTx]
alteration of [^3H]physostigmine photoincorporation in Na^+/K^+-ATPase α subunit [2]: < 5% | alteration of [^3H]physostigmine photoincorporation in nAChR β subunit (Torpedo nAChR [1]): < 5% | change of efficiency of [^3H]physostigmine photolabeling at δTyr-439 (Torpedo nAChR [1]): < 20% | decrease of [^3H]physostigmine photolabeling of nAChR δ subunit (Torpedo nAChR [1]): ~ 10% | effect on [^3H]physostigmine photolabeling of γTyr-105 (Torpedo nAChR [1]): unchanged | inhibition of [^3H]physostigmine photolabeling of αTyr-190, αCys-192 and αTyr-198 (Torpedo nAChR [1]): > 85% | inhibition of [^3H]physostigmine photolabeling of αV8-20 fragment (Torpedo nAChR [1]): > 75% | inhibition of [^3H]physostigmine photolabeling of γTyr-111 and γTyr-117 (Torpedo nAChR [1]): 50–60% | reduction of [^3H]physostigmine photoincorporation into nAChR α subunit (Torpedo nAChR [1]): 40% | reduction of [^3H]physostigmine photoincorporation into nAChR γ subunit (Torpedo nAChR [1]): 20% | reduction of [^3H]physostigmine photolabeling of δTyr-172 (Torpedo nAChR [1]): 70% | reduction of efficiency of [^3H]physostigmine photolabeling of δTyr-212 (Torpedo nAChR [1]): ~ 25%

C[N+](C)(C)CCOC(N)=O.[Cl-] [Carb, carbamylcholine]
alteration of [^3H]physostigmine photoincorporation in Na^+/K^+-ATPase α subunit [2]: < 5% | inhibition of [^3H]galanthamine photolabeling in the α subunit (Torpedo nAChR [3]): 80% | inhibition of [^3H]galanthamine photolabeling of αTyr-190 and αTyr-198 (Torpedo nAChR [3]): > 95% | reduction of [^3H]galanthamine photolabeling in β subunit (Torpedo nAChR [3]): < 5% | reduction of [^3H]galanthamine photolabeling in γ and δ subunits (Torpedo nAChR [3]): ~ 25% | alteration of [^3H]physostigmine photoincorporation in nAChR β subunit (Torpedo nAChR [1]): < 5% | change of efficiency of [^3H]physostigmine photolabeling at δTyr-439 (Torpedo nAChR [1]): < 20% | effect on [^3H]physostigmine photolabeling of γTyr-105 (Torpedo nAChR [1]): enhanced | effect on efficiency of [^3H]physostigmine photolabeling of δTyr-212 (Torpedo nAChR [1]): doubled | increase of [^3H]physostigmine photolabeling of nAChR δ subunit (Torpedo nAChR [1]): ~ 10% | inhibition of [^3H]physostigmine photolabeling of αTyr-93 (Torpedo nAChR [1]): > 90% | inhibition of [^3H]physostigmine photolabeling of αTyr-190, αCys-192 and αTyr-198 (Torpedo nAChR [1]): > 85% | inhibition of [^3H]physostigmine photolabeling of αV8-20 fragment (Torpedo nAChR [1]): > 75% | inhibition of [^3H]physostigmine photolabeling of γTyr-111 and γTyr-117 (Torpedo nAChR [1]): 50–60% | reduction of [^3H]physostigmine photoincorporation into nAChR α subunit (Torpedo nAChR [1]): 40% | reduction of [^3H]physostigmine photoincorporation into nAChR γ subunit (Torpedo nAChR [1]): 10%

COc1ccc2c3c1O[C@H]1C[C@@H](O)C=C[C@@]31CCN(C)C2 [galanthamine]
reduction of [^3H]galanthamine photolabeling of each nAChR subunit (Torpedo nAChR [3]): ~ 25% | reduction of [^3H]galanthamine photolabeling of Na^+/K^+-ATPase α subunit [4]: < 5% | IC50 (Torpedo nAChR [5]): 3 mM and 2.8 mM | inhibition at 3000 µM (Torpedo nAChR [6]; read-out: inhibition of [^3H]tetracaine binding): 10% | inhibition at 3000 µM (Torpedo nAChR [7]; read-out: inhibition of [^3H]PCP binding): 20% | change of efficiency of [^3H]physostigmine photolabeling at δTyr-439 (Torpedo nAChR [1]): < 20% | reduction of [^3H]physostigmine photoincorporation into the nAChR subunits (Torpedo nAChR [1]): to the same extent as 100 μM physostigmine | inhibition at 300 µM (Torpedo nAChR [1]; read-out: inhibition of [^3H]physostigmine photolabeling of γTyr-105, γTyr-111 and γTyr-117): ~75% | inhibition at 300 µM (Torpedo nAChR [1]; read-out: inhibition of [^3H]physostigmine photolabeling of δTyr-212): ~50%

CNC(=O)Oc1ccc2c(c1)[C@]1(C)CCN(C)[C@@H]1N2C [physostigmine]
decrease of [^3H]physostigmine photolabeling in Na^+/K^+-ATPase α subunit [2]: < 5% | IC50 (Torpedo nAChR [5]): > 10 mM | IC50 (Torpedo nAChR [6]): 5 mM | IC50 (Torpedo nAChR [7]; IC50, inhibition of [^3H]PCP binding): 1 mM and 0.9 mM | decrease of [^3H]physostigmine photolabeling in the nAChR subunits (Torpedo nAChR [1]): 25–40%
